“Also recorded” adds a separate entry of the source. Read-outs that look alike come from different tables or passages of the source.

The source of these data is patent publication US20250381274A1 (priority 2022, published 2025).

One assay has as its system corneal buttons. Details: species or system rabbit. As to conditions: for equilibrium modulus change vs paired control (words): Dresden protocol (riboflavin/R5P + UVA); for viscoelastic ratio change vs paired control (words): Dresden protocol (riboflavin/R5P + UVA) vs R5P-exposed-only control. The protocol:
• 3 rabbits, (n=8 pairs of 3 mm biopsy punched corneal buttons) • Laser Treatments: • Fidelity II, 1069 nm, 450 mW • Focusing: Marker/spark around, not touching the tissue • Objective: ZEISS 40X, NA=0.1463 • Z: increments 20 μm, 5 layers (several intervals) • 1stlayer 15 μm below surface of focus sparking • XY: 10 μm zigzag grid, 3 mm radius circle • With ˜12 gram compression • Motor speed 2.6 mm/s, full circle treatments: ˜25*5 mins • Sample Preparation: • −3 mm biopsy punch (1BT) • not connected to IV system • Prior to LT: 30 mins in 20% w/w Dextran 500 in PBS • 30 mins in 20% w/w ribose in DPBS (˜1.7M) • Post LT: Trypan blue is used to mark endothelium side • Imaged on the same day in DPBS • Overnight storage in DPBS in 4C fridge • 3 hrs prior to indentation, in room temp PBS • Piuma nano-indentation: • For each cornea button, the average of up to 16 indentations are acquired as
• 3 rabbits, (n=10 pairs of 3 mm biopsy punched corneal buttons) • 3 mm biopsy punch • not connected to IV system • Treatment Protocol-1 hr submerged in 20% w/v Ribose for all samples • 1 hr of UV-A lamp irradiation (control was not under UV) • Post Treatment Trypan blue is used to mark endothelium side • Imaged on the same day in DPBS • Overnight storage in DPBS in 4C fridge • 3 hrs prior to indentation, in room temp PBS • Piuma nano-indentation: • For each cornea button, the average of up to 16 indentations are acquired as representative modulus • The average of the representative modulus are presented in appended FIGS. 1-25.
Nano-Indentation: The corneal buttons were stored in PBS in a 4C fridge overnight for hydration equilibrium. Indentations of 5 μm depth using 29-35 μm diameter spherical indenters were performed on the anterior surface of the cornea buttons to acquire 25-second load-relaxation curves. For each button, the average of up to 16 indentations was used as the representative result. The equilibrium modulus and the viscoelastic ratio, defined as equilibrium modulus over instantaneous modulus, were calculated and compared.
Nanoindentation: Indentations were performed on the anterior surface of the cornea buttons. The equilibrium modulus E∞, instantaneous modulus Eo, and the viscoelastic ratio E∞/Eo, were calculated and compared.
After overnight incubation in PBS at 4C to reach equilibrium hydration, corneal buttons in Group A were allowed to return to room temperature the next morning after the respective treatment days while glued to the bottom of a petri-dish with the anterior surface of the corneal button facing upward. A displacement-controlled indenter (Piuma, Optics 11, Amsterdam, The Netherlands) was used to perform micro-indentations on top of the sample surface submerged in PBS; for each sample, multiple tests were performed following an array of 16 equally spaced (4×4) contact points with a spacing of 100 μm to 150 μm, covering roughly a 0.4×0.4 mm^2 area at the center of each corneal button. A spherical glass probe with a 34 μm radius and 0.2 N/m stiffness was used for samples in Group 1A; another spherical glass probe with a 25.5 μm radius and 4.09 N/m stiffness was used for Group 1B, 1C, 1D, and 2C. The indentation process at each contact point was comprised of three consecutive steps of loading Piezo movement of 5 μm for 2 seconds, holding time of 5 s, and unloading for 2 seconds. The load-relaxation curves obtained after indenting each point were then processed using a viscoelastic model to obtain equilibrium modulus and viscoelastic ratio following a fitting algorithm developed by Oyen.

The subject of a further assay is corneal tissues. In words: Multiphoton/confocal imaging: autofluorescence and second harmonic generation signal. Details: species or system rabbit. As to conditions: anterior 100 μm. The text has this: • The grey value of the top 100 μm (11 Z-stacks) of the cornea button was summed; • The average of the grey value summations are presented in appended FIGS. 1-25. • […] • The average of the grey value summations and Representative images at ˜600*600*100 μm in x, y, z are presented in appended FIGS. 1-25. The autofluorescence and second harmonic generation (SHG) signals of the corneal tissues in Group A were investigated to reveal the presence of CxLs and structural changes in collagenous ECM after hydration equilibrium in PBS on the same night of individual treatment days. Imaging was performed with a Nikon TI Eclipse inverted microscope using a Ti: Sapphire laser Chameleon Ultra II at 860 nm as the light source and a Nikon Apo LWD 20× objective for focusing. The emission filter was set at the FITC channel (475-650 nm, peak 525 nm) for autofluorescence signal collection and at the DAPI channel (400-600 nm, peak at 457 nm) for SHG signal collection. The XY scanning area for each sample was 635 μm by 635 μm, and Z scanning was 100 μm deep with 10 μm increments (stack of 11 images per sample). The summation of the average grey value processed in Image J at each layer was used as the representative signal strength for each sample.

In the case of “riboflavin-5-phosphate [R5P, reference compound]”, in the assay on corneal buttons, the “equilibrium modulus change vs paired control (words)” value is “statistically significant differences” and the “viscoelastic ratio change vs paired control (words)” value was “more elastic response; also recorded: significantly different time-dependent elastic response”. For the same substance, in the assay with corneal buttons (listed as riboflavin), the “viscoelastic ratio change vs paired control (words)” value is listed as “significant increase; also recorded: significantly increased” and the “equilibrium modulus change vs paired control (words)” value is on record as “significantly increased”. Besides, the equilibrium modulus in the assay with corneal buttons (Group 1D positive control: Dresden protocol, 0.1% R5P in 20% dextran 500 + UVA) was found to be 100 kPa. In the assay on corneal tissues (Dresden protocol vs R5P exposed control), the “second harmonic generation signal intensity change vs paired control (words)” value is “increased SHG signal; also recorded: statistically significant increase; also recorded: Statistical significance”. Further, the “autofluorescence signal intensity change vs paired control (words)” value in the assay on corneal tissues (Dresden protocol vs R5P only control) is reported as “increased; also recorded: Statistical significance”.

With Dextran, in the assay with corneal buttons (20% Dextran + femtosecond laser 755-760 nm ~850 mW, coverslip, without oxygen), the “equilibrium modulus change” value is “significantly increased the equilibrium modulus of the cornea, but the magnitudes are small”.
